Data reported in patent publication US8183236B2, “Compounds with HIV-1 integrase inhibitory activity and use thereof as anti-HIV/AIDS therapeutics” (University of Southern California, priority 2007, dated 2012).

Experiments:
[1] = biological target: T1, HIV-1 integrase (wild-type IN) (Human immunodeficiency virus type 1 group M subtype B, UniProt P12497); experiment: HIV-1 integrase 3′-processing assay (32P-labeled 21-mer, gel); format: biochemical
Outline: (§1)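 Wild-type IN at 200 nM preincubated with inhibitor 30 min at 30 °C in MnCl2 (7.5 mM), pH 7.2 MOPS buffer with 10% DMSO, then 20 nM 5′-32P-labeled 21-mer duplex added for 1 h. 19-mer and strand-transfer products resolved on denaturing 20% gels by phosphorimaging; IC50 from log concentration versus % inhibition.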

[2] = biological target: T1, HIV-1 integrase (wild-type IN); experiment: HIV-1 integrase strand transfer assay (32P-labeled 21-mer, gel); format: biochemical
Outline: as §1

[3] = unit inferred, read-out: IN inhibition activity 3′-processing
[4] = unit inferred, read-out: IN inhibition activity Strand transfer
[5] = unit inferred, read-out: HIV-1 IN Inhibitory Activities 3′-processing
[6] = unit inferred, read-out: HIV-1 IN Inhibitory Activities Strand transfer
[7] = wild-type IN 200 nM, 7.5 mM MnCl2, read-out: Inhibition of IN Catalytic Activities IC50 (μM) 3′-processing
[8] = wild-type IN 200 nM, 7.5 mM MnCl2, read-out: Inhibition of IN Catalytic Activities IC50 (μM) Strand Transfer
[9] = Table 54, read-out: IN inhibition activity 3′-processing
[10] = Table 54, read-out: IN inhibition activity Strand transfer

`COc1ccc(OC)c(C2C(C(=O)c3ccc(Cl)cc3)=C(O)C(=O)N2CCCCCC(=O)O)c1` (centres unmarked) [AS16] showed an IC50 [1, 3] of 88 µM and an IC50 [2, 4] of 40 ± 5 µM.

`Cc1cccc(Nc2nc3nonc3nc2N/N=C/c2ccc(-c3cccc(C(=O)O)c3)o2)c1` [AV15A21] was tested, and the IC50 [1, 3] was 10 ± 5 µM and the IC50 [2, 4] was 7 ± 2 µM.

Work on `O=C(N/N=C1\C(=O)Nc2ccc(Br)cc21)/C(O)=C/C(=O)c1ccc(Cl)cc1` [Example X115] yielded an IC50 [1, 5] of 42 µM and an IC50 [2, 6] of 28 µM.

Work on `Cc1ccc(/C=C2\SC(=S)N(CCC(=O)Nc3ccc(S(=O)(=O)Nc4nccs4)cc3)C2=O)cc1` [Compound X124] yielded an IC50 [1, 7] of 83 ± 21 µM and an IC50 [2, 8] of 44 ± 16 µM.

`O=C(O)c1cccc(-c2ccc(/C=N/NC(=O)c3cccnc3)o2)c1` [AV15A4] gave an IC50 [1, 3] greater than 100 µM and an IC50 [2, 4] of 96 ± 6 µM.

`N#C/C(=C\c1ccc(-c2ccc(Cl)c(C(=O)O)c2)o1)c1nc2ccccc2[nH]1` [AV15A10] was tested, and the IC50 [1, 3] was 76 µM and the IC50 [2, 4] was 30 µM.

`O=C(CSc1nnc(-c2ccc(Cl)cc2)n1-c1ccccc1)NNC(=O)c1ccccc1O` [AS9A9] gave an IC50 [1, 3] of 11 ± 3 µM and an IC50 [2, 4] of 5 ± 1 µM.

Molecule `COc1ccc(C=C2SC(=S)N(CCC(=O)Nc3cccc(C(=O)O)c3)C2=O)cc1` [Compound X26] has an IC50 [1, 7] greater than 100 µM and an IC50 [2, 8] greater than 100 µM.

Work on `O=C(CCN1C(=O)/C(=C/c2ccc3c(c2)OCO3)SC1=S)Nc1ccc2c(c1)OCO2` [Compound X187] yielded an IC50 [1, 7] of 97 ± 6 µM and an IC50 [2, 8] of 93 ± 12 µM.

Molecule `CCOC(=O)N1CCN(C(=O)CCN2C(=O)/C(=C/c3ccc(OC)c(OC)c3)SC2=S)CC1` [Compound X90] has an IC50 [1, 7] greater than 100 µM and an IC50 [2, 8] greater than 100 µM.

`COc1cc(C=C2SC(=S)N(CCC(=O)Nc3ccc(C(=O)O)cc3)C2=O)cc(OC)c1OC` [Compound X173] showed an IC50 [1, 7] of 97 ± 6 µM and an IC50 [2, 8] of 85 ± 15 µM.

`CCOc1cc(/C=C2\C(=O)N(c3nnn[nH]3)N=C2C)ccc1OC` [GLD12A3] showed an IC50 [1, 9] of 75 ± 28 µM and an IC50 [2, 10] of 59 ± 13 µM.

Work on `O=C(O)CSc1nc(Nc2ccccc2)nc(N2CCOCC2)n1` [GLD2A18] yielded an IC50 [1, 3] greater than 100 µM and an IC50 [2, 4] greater than 100 µM.

`O=C(Nc1ccccc1C(=O)O)c1cccc(S(=O)(=O)Nc2cccc([N+](=O)[O-])c2)c1` [Example X148] showed an IC50 [1, 5] of 89 µM and an IC50 [2, 6] of 90 µM.

`CN(C)c1nc(NCc2ccccc2)nc(N/N=C/c2ccc(-c3cccc(C(=O)O)c3)o2)n1` [AV15A26] showed an IC50 [1, 3] greater than 100 µM and an IC50 [2, 4] of 88 µM.

For `COc1cc(C(=O)Nc2ccc(O)c(-c3nc4ccccc4o3)c2)cc(OC)c1OC` [XR18], the IC50 [1, 5] was less than 100 µM and the IC50 [2, 6] was less than 100 µM.

`O=C1/C(=C/c2ccc(O)cc2O)SC(=S)N1c1ccccc1` [Compound X221] gave an IC50 [1, 7] greater than 100 µM and an IC50 [2, 8] greater than 100 µM.

`CC1=C(C#N)c2nc(N)c(C#N)c(C)c2/C1=C/c1ccc(-c2ccc(F)cc2)o1` [AV15A48] gave an IC50 [1, 3] greater than 100 µM and an IC50 [2, 4] greater than 100 µM.

`N#C/C(=C\c1ccc(-c2ccc(O)c(C(=O)O)c2)o1)c1nc2ccccc2[nH]1` [AV15A9] gave an IC50 [1, 3] of 25 ± 10 µM and an IC50 [2, 4] of 14 ± 4 µM.

With `O=C(N/N=C/c1ccc(-c2ccc(Cl)c(C(=O)O)c2)o1)c1ccncc1` [AV15A40] the IC50 [1, 3] was 90 ± 18 µM and the IC50 [2, 4] was 46 ± 23 µM.

`CC1=C(C#N)c2nc(N)c(C#N)c(C)c2/C1=C/c1ccc(-c2cccc(C(=O)O)c2)o1` [AV15A11] was tested, and the IC50 [1, 3] was 24 ± 16 µM and the IC50 [2, 4] was 20 ± 13 µM.

`Cn1c(=O)c(C(=O)Nc2ccccc2S(N)(=O)=O)c(O)c2ccccc21` [XR8] was tested, and the IC50 [1, 7] was 50 µM and the IC50 [2, 8] was 39 µM.

In the case of `CC(C)(C)c1ccc(OCC(=O)N/N=C/c2ccc(-c3cccc(C(=O)O)c3)o2)cc1` [AV15A35], the IC50 [1, 3] is reported as greater than 100 µM and the IC50 [2, 4] is reported as 86 µM.

Molecule `O=C(Cc1ccc(F)cc1)N/N=C/c1ccc(-c2ccc(Cl)c(C(=O)O)c2)o1` [AV15A47] has an IC50 [1, 3] greater than 100 µM and an IC50 [2, 4] greater than 100 µM.

`Cc1ccc(C(=O)N/C(=C/c2ccc(-c3ccc(Cl)cc3Cl)o2)C(=O)NCCCO)cc1` [Example X280] was tested, and the IC50 [1, 5] was greater than 1000 µM and the IC50 [2, 6] was 85 µM.

`N=C1NC(=O)/C(=C\c2ccc(-c3cccc(C(=O)O)c3)o2)S1` [AV15A2] was tested, and the IC50 [1, 3] was greater than 100 µM and the IC50 [2, 4] was 90 ± 17 µM.

For `N#C/C(=C\c1ccc(-c2cccc(C(=O)O)c2)o1)c1nc2ccccc2[nH]1` [AV15A7], the IC50 [1, 3] was greater than 100 µM and the IC50 [2, 4] was 17 µM.

`COc1ccc(N(CC(=O)N/N=C/c2c(O)ccc3ccccc23)S(C)(=O)=O)cc1Cl` [Example X279] gave an IC50 [1, 5] of 95 µM and an IC50 [2, 6] of 59 µM.

`CCOc1cc(N(CC)CC)ccc1/C=C1\C(=O)N(c2nnn[nH]2)N=C1C` [GLD12A1] showed an IC50 [1, 9] of 61 ± 8 µM and an IC50 [2, 10] of 65 ± 8 µM.

With `O=C(Nc1cc(C(=O)Nc2ccccc2C(=O)O)cc(C(=O)Nc2ccccc2C(=O)O)c1)c1ccccc1` [ROM1] the IC50 [1, 5] was 78 µM and the IC50 [2, 6] was 20 µM.

Molecule `Cc1ccc(-n2c(SCC(=O)NNC(=O)c3ccccc3O)nnc2-c2ccccc2O)cc1` [AS9] has an IC50 [1, 3] of 5 ± 2 µM and an IC50 [2, 4] of 3 ± 1 µM.

`Oc1ccccc1/C=N/CC(O)C/N=C/c1ccccc1O` [Example X208] was tested, and the IC50 [1, 5] was 97 µM and the IC50 [2, 6] was 61 µM.

`CCCCn1c(=O)c(C(=O)Nc2ccccc2S(N)(=O)=O)c(O)c2ccccc21` [XR14] gave an IC50 [1, 7] of 15 µM and an IC50 [2, 8] of 17 µM.

Work on `O=C(Cc1ccccc1)Nc1cc(C(=O)O)c(NC(=O)Cc2ccccc2)cc1C(=O)O` [Compound X7] yielded an IC50 [1, 7] of 9 µM and an IC50 [2, 8] of 7 µM.

For `CC(C)(C)c1ccc(C2C(C(=O)c3ccc(F)cc3)=C(O)C(=O)N2c2nncs2)cc1` (centres unmarked) [Compound M28A2], the IC50 [1, 3] was 64 ± 28 µM and the IC50 [2, 4] was 43 ± 8 µM.

For `N#C/C(=C\c1ccc(-c2ccc(C(=O)O)c(O)c2)o1)c1nc2ccccc2[nH]1` [AV15A31], the IC50 [1, 3] was 34 µM and the IC50 [2, 4] was 24 µM.

With `O=C(O)c1ccc(-c2ccc(/C=N/Nc3nc(Nc4ccccc4)nc(Nc4ccccc4)n3)o2)cc1O` [AV15A28] the IC50 [1, 3] was greater than 100 µM and the IC50 [2, 4] was greater than 100 µM.

`Cc1ccc(C=C2SC(=S)N(CC(=O)Nc3cccc(C(=O)O)c3)C2=O)cc1` [Compound X97] was tested, and the IC50 [1, 7] was 98 ± 4 µM and the IC50 [2, 8] was greater than 100 µM.

`CCOc1cc(/C=C2\C(=O)N(c3nnn[nH]3)N=C2C)cc(Cl)c1OCC` [GLD12A4] showed an IC50 [1, 9] of 7 ± 6 µM and an IC50 [2, 10] of 4 ± 2 µM.

In the case of `O=C(N/N=C/c1ccc(-c2ccc(O)c(C(=O)O)c2)o1)c1cccnc1` [SA1], the IC50 [1, 3] is reported as 59 ± 1 µM, the IC50 [1, 7] is reported as 59 µM and the IC50 [2, 4] is reported as 9 ± 5 µM. It also gave an IC50 [2, 8] of 9 µM.

`Cc1ccc(C=C2SC(=S)N(CC(=O)Nc3ccc([N+](=O)[O-])cc3O)C2=O)cc1` [Compound X195] was tested, and the IC50 [1, 7] was greater than 100 µM and the IC50 [2, 8] was greater than 100 µM.

With `COc1cc(/C=N/NC2=NC(=O)C(CC(=O)Nc3ccc(Cl)c(Cl)c3)S2)ccc1O` (centres unmarked) [Example X278] the IC50 [1, 5] was 89 µM and the IC50 [2, 6] was 38 µM.

In the case of `O=C(NC(=S)N1CCN(c2cc3c(cc2F)c(=O)c(C(=O)O)cn3C2CC2)CC1)c1ccc(Cl)cc1` [ROM3A9], the IC50 [1, 7] is reported as 80 µM and the IC50 [2, 8] is reported as 53 µM.

Work on `CC(=O)C1=C(O)C(=O)N(CC(=O)O)C1c1ccc(Br)cc1` (centres unmarked) [Compound X36] yielded an IC50 [1, 5] greater than 100 µM and an IC50 [2, 6] greater than 100 µM.

Work on `O=C(CSc1nnc(Cc2ccccc2)n1-c1cccc(Cl)c1)NNC(=O)c1ccccc1O` [AS230] yielded an IC50 [1, 3] of 9 ± 1 µM and an IC50 [2, 4] of 8 ± 4 µM.
